Source: ChEMBL document CHEMBL4017476, “Synthesis of novel 5,6-dehydrokawain analogs as osteogenic inducers and their action mechanisms” (Bioorg Med Chem Lett, 2017)
Calls of active or inactive are those of the source. No cut-off for these calls is given here.

test system: MC3T3-E1; experiment: Osteogenic activity in mouse MC3T3-E1 cells assessed as increase in ALP activity at 30 uM measured after 4 days relative to control; type: functional; conditions: not given

Row | SMILES | fold change (FC) | Activity
1 | COc1cc(/C=C/C2CCCCC2)oc(=O)c1 | 1.32 - 2.87 | 
2 | COc1cc(/C=C/C2CC2)oc(=O)c1 |  | inactive
3 | COc1cc(/C=C/c2ccc(F)cc2)oc(=O)c1 |  | inactive
4 | COc1cc(/C=C/c2ccc(C)cc2)oc(=O)c1 |  | Active
5 | COc1cc(/C=C/c2ccc(Cl)cc2)oc(=O)c1 | 1.32 - 2.87 | 
6 | COc1cc(/C=C/c2ccsc2)oc(=O)c1 |  | inactive
7 | COc1cc(/C=C/c2cccc(C)c2)oc(=O)c1 |  | Active
8 | COc1cc(/C=C/c2ccccc2C)oc(=O)c1 |  | Active

test system: MC3T3-E1; experiment: Osteogenic activity in mouse MC3T3-E1 cells assessed as increase in mineralization at 30 uM measured after 10 days by alizarin red S staining based assay; type: functional, cell-based; conditions: not given

Row | SMILES | Activity
9 | COc1cc(/C=C/c2ccccc2)oc(=O)c1C | inactive
10 | CCCOc1cc(/C=C/c2ccccc2)oc(=O)c1 | inactive
11 | CCOc1cc(/C=C/c2ccccc2)oc(=O)c1 | inactive
12 | COc1cc(/C=C/C2CCCCC2)oc(=O)c1 | Active
13 | COc1cc(/C=C/C2CC2)oc(=O)c1 | inactive
14 | COc1cc(/C=C/c2ccc(F)cc2)oc(=O)c1 | inactive
15 | COc1cc(/C=C/c2ccc(C)cc2)oc(=O)c1 | Active
16 | COc1cc(/C=C/c2ccc(Cl)cc2)oc(=O)c1 | Active
17 | COc1cc(/C=C/c2ccsc2)oc(=O)c1 | inactive
18 | COc1cc(/C=C/c2cccc(C)c2)oc(=O)c1 | Active
19 | COc1cc(/C=C/c2ccccc2C)oc(=O)c1 | Active

test system: MC3T3-E1; experiment: Osteogenic activity in mouse MC3T3-E1 cells assessed as increase in mineralization at 0.1 to 60 uM measured after 10 days by alizarin red S staining based assay; type: functional, cell-based; conditions: not given

Row | SMILES | Activity
20 | COc1cc(/C=C/c2ccccc2)oc(=O)c1C | inactive
21 | CCCOc1cc(/C=C/c2ccccc2)oc(=O)c1 | inactive
22 | CCOc1cc(/C=C/c2ccccc2)oc(=O)c1 | inactive

test system: MC3T3-E1; experiment: Cytotoxicity against mouse MC3T3-E1 cells assessed as cell number at 30 uM measured after 4 days by WST-8 assay relative to control; type: cell-based; conditions: mc3t3-e1, 96 h

Row | SMILES | fold change (FC)
23 | COc1cc(/C=C/c2ccccc2)oc(=O)c1C | 0.85 to 1.25
24 | CCOc1cc(/C=C/c2ccccc2)oc(=O)c1 | 0.85 to 1.25
25 | COc1cc(/C=C/C2CCCCC2)oc(=O)c1 | 0.85 to 1.25
26 | COc1cc(/C=C/C2CC2)oc(=O)c1 | 0.85 to 1.25
27 | COc1cc(/C=C/c2ccc(F)cc2)oc(=O)c1 | 0.85 to 1.25
28 | COc1cc(/C=C/c2ccc(C)cc2)oc(=O)c1 | 0.85 to 1.25
29 | COc1cc(/C=C/c2ccc(Cl)cc2)oc(=O)c1 | 0.85 to 1.25
30 | COc1cc(/C=C/c2ccsc2)oc(=O)c1 | 0.85 to 1.25
31 | COc1cc(/C=C/c2cccc(C)c2)oc(=O)c1 | 0.85 to 1.25
32 | CCCc1ccc(/C=C/c2cc(OC)cc(=O)o2)cc1 | 0.85 to 1.25
33 | COc1cc(/C=C/c2ccccc2C)oc(=O)c1 | 0.85 to 1.25
